Data on 22 compounds can be found in patent publication US7205295B2, “Benzoxazin-3-ones and derivatives thereof as therapeutic agents” (Warner-Lambert Company LLC, priority 2002, dated 2007).

The structures appear in SMILES notation.

In the test the target is T1, PI3Kγ (p101/p110γ protein) (Homo sapiens, UniProt P48736).
T1 construct: HA; made in house; host or cells: Spodoptera frugiperda (Sf9) cells, baculovirus co-infection
T1 sequence (P48736 whole entry, species assumed): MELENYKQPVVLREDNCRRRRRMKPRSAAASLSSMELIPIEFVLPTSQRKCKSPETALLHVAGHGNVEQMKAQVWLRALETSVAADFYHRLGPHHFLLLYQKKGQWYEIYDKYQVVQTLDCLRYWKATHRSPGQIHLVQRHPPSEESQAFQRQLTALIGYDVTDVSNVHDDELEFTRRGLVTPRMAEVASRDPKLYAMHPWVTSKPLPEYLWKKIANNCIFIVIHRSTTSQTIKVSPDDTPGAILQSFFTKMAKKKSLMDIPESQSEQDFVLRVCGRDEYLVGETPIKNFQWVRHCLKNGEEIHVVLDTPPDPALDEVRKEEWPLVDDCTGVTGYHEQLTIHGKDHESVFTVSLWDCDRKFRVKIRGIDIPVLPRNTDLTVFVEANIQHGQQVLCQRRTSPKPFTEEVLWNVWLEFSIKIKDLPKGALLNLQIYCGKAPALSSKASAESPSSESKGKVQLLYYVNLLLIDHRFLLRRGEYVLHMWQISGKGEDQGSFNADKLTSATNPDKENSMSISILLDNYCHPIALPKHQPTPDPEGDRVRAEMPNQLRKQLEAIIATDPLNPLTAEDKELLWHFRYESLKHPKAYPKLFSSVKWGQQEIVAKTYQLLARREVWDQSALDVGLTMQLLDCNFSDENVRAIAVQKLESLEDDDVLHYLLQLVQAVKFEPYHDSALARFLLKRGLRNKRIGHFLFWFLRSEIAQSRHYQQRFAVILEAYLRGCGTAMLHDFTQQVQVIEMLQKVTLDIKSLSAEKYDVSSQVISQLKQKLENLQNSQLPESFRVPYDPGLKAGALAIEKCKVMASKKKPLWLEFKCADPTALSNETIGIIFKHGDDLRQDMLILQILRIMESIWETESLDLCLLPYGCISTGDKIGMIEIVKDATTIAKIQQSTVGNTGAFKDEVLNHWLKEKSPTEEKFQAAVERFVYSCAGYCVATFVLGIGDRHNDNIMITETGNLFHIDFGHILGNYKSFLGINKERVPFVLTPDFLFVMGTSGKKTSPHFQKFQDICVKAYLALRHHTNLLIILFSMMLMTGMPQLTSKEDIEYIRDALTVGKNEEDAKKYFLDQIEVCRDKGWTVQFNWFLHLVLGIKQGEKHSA
T1 sequence (Q8WYR1 whole entry partner, species assumed): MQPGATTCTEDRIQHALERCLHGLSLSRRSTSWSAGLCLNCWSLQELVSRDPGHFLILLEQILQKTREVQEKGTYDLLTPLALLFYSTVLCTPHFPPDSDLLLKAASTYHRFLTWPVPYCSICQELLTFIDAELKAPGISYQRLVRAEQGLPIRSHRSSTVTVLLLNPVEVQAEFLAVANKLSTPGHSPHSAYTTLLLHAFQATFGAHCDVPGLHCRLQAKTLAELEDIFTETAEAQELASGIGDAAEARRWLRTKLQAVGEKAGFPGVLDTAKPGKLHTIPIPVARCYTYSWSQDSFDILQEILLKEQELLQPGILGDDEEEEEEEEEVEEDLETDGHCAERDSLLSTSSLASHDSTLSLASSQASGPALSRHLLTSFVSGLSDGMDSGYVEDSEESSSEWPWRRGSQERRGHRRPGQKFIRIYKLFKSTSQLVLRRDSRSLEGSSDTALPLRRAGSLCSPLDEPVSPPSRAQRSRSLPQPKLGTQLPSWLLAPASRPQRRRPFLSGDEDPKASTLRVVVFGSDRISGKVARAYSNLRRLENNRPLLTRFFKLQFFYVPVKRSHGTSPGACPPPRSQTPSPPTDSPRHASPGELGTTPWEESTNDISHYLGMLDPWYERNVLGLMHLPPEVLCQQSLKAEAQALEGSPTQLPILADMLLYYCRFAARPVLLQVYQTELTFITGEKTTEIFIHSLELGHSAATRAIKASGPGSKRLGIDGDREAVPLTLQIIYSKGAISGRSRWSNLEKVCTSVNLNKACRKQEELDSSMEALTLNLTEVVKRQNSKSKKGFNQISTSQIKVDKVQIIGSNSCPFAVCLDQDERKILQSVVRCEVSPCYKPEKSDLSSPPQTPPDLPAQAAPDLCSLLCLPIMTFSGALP
As to the kind of experiment: PI3Kγ In Vitro Kinase Assay. Format: biochemical. The conditions noted are these: purified recombinant p101/p110γ with G protein β1/γ2 subunits; 20 μM ATP, 25 μM PIP2; 20 minutes at room temperature. As to the method:
Spodtera frugiperda cells, grown in ESF921 media, were coinfected with baculovirus expressing a glu-tagged p101 and baculovirus expressing an HA-tagged p110γ, at a 3:1 ratio of p101 baculovirus to p110γ baculovirus. Sf9 cells were grown to 1×10^7 total cells/mL in 10L bioreactors and harvested 48-72 hours post infection. Samples of infected cells were then tested for expression of p101/p110γ PI3 kinase by immunoprecipitation and Western Blot analysis methods (see below). […] NaCl was added to 150 mM, and sodium cholate was added to 1% and mixed for another 45 minutes. The lysates were clarified by centrifugation for 25 minutes at 14,000 rpm. The lysates were then loaded over anti-glu-linked Protein-G Sepaharose beads (Covance Research Products, Richmond, Calif.) using 20 mL resin/50 g cell paste. […] PI3Kγ was eluted with 6 column volumes of wash buffer that contain 100 μg/mL of a peptide that competes for binding of the glu tag. […] The fractions were stored at -80° C. until further use. Spodtera frugiperda cells were coinfected with baculovirus expressing a glu-tagged G protein β1 and baculovirus expressing a G protein […] at a 1:1 ratio of glu-tagged G protein β1 baculovirus to G protein β2 baculovirus. Sf9 cells are grown in 10 L bioreactors and harvested 48-72 hours post infection. Samples of infected cells were tested for G protein β1/β2 expression by Western Blot analysis, as described below. Cell lysates were homogenized and loaded onto a column of glu-tagged beads as in Biological Example 1 and competed off the column with a glu peptide as described in Biological Example 1. The inhibitory properties of the compounds in Table 1 were assayed in an in vitro PI3K assay. In a 96-well polypropylene plate, each well was spotted with 2 μL of […] the desired final concentration of compound in DMSO. Purified recombinant p101/p110γ protein (0.03 μg; 2.7 nM) and G protein β1/γ2 subunits (0.09 μg; 57.7 nM) for each reaction was combined in the assay buffer (30 mM HEPES, 100 mM NaCl, 1 mM EGTA, and 1 mM DTT). ATP and [γ-^32P-ATP] (0.09 μCi) were added to this mixture so that the final ATP concentration in the reaction was 20 μM. Lipid micelles were formed by sonicating phosphatidylinositol-4,5-diphosphate (PIP2), phosphatidylethanolamine (PE), and Na-cholate in the assay buffer for 10 minutes, adding MgCL2 and incubating on ice for 20 minutes, for final concentrations of 25 μM PIP2, 300 [M PE, 0.02% Na-cholate, and 10 mM MgCl2 in the reaction. The reactions were started by adding equal volumes lipid and enzyme mixture in a total volume of 50 μL, allowed to run for 20 minutes at room temperature, and stopped with 100 μL 75 mM H3PO4. The lipid product was transferred to a glass fiber filter plate and washed with 75 mM H3PO4 several times. The presence of radioactive lipid product (PIP3) was measured by adding Wallac Optiphase mix to each well and counting in a Wallac 1450 Trilux plate reader (PerkinElmer Life Sciences Inc., Boston, Mass. 02118).
With `O=C1NC(=O)C(=Cc2cc(F)c3c(c2)N(Cc2ccc(CN4CCCCC4)cc2)C(=O)CO3)S1` [Example 76, 5-[8-Fluoro-3-oxo-4-(4-piperidin-1-ylmethyl-benzyl)-3,4-dihydro-2H-1,4-benzoxazin-6-ylmethylene]-thiazolidine-2,4-dione], the 50% inhibitory concentration (IC50) came out at 0.006 µM.

Turning to `O=C1NC(=S)SC1=Cc1cc(Cl)c2c(c1)N(Cc1ccc(CN3CCCCC3)cc1)C(=O)CO2` [Example 79, 8-Chloro-6-(4-oxo-2-thioxo-thiazolidin-5-ylidenemethyl)-4-(4-piperidin-1-ylmethyl-benzyl)-4H-1,4-benzoxazin-3-one; compound with Toluene-4-sulfonic acid], the IC50 turned out to be 0.02 µM.

With `Cc1cc(CN2C(=O)COc3ccc(C=C4SC(=S)NC4=O)cc32)cc(-c2nccs2)c1` [Example 119, 4-(3-Methyl-5-thiazol-2-yl-benzyl)-6-(4-oxo-2-thioxo-thiazolidin-5-ylidenemethyl)-4H-benzo[1,4]oxzain-3-one], the IC50 amounted to 0.019 µM.

Take `O=C1NC(=O)C(=Cc2cc(F)c3c(c2)N(Cc2ccc(F)cc2)C(=O)CO3)S1` [Example 298, 5-[8-Fluoro-4-(4-fluoro-benzyl)-3-oxo-3,4-dihydro-2H-benzo[1,4]oxazin-6-ylmethylene]-thiazolidine-2,4-dione]: the IC50 was determined as 0.001 µM.

Take `O=C1NC(=S)SC1=Cc1ccc2c(c1)N(CC(=O)N1CCNCC1)C(=O)CO2` [Example 215, 4-(2-Oxo-2-piperazin-1-yl-ethyl)-6-(4-oxo-2-thioxo-thiazolidin-5-ylidenemethyl)-4H-1,4-benzoxazin-3-one]: the IC50 is 1.08 µM.

In the case of `C[C@@H]1Oc2ccc(C=C3SC(=S)NC3=O)cc2N(Cc2ccc3ccccc3c2)C1=O` [Example 152, (S)-2-Methyl-4-naphthalen-2-ylmethyl-6-(4-oxo-2-thioxo-thiazolidin-5-ylidenemethyl)-4H-benzo[1,4]oxazin-3-one], the half-maximal inhibitory concentration (IC50) is 1.03 µM.

For the compound `O=C1NC(=S)SC1=Cc1ccc2c(c1)N(Cc1ccccn1)C(=O)CO2` [Example 147, 6-(4-Oxo-2-thioxo-thiazolidin-5-ylidenemethyl)-4-pyridin-2-ylmethyl-4H-benzo[1,4]oxazin-3-one], the half-inhibitory concentration (IC50) was 0.049 µM.

For the compound `O=C1NC(=S)SC1=Cc1cc(F)c2c(c1)N(Cc1ccc3ncccc3c1)C(=O)CO2` [Example 328, 8-Fluoro-6-(4-oxo-2-thioxo-thiazolidin-5-ylidenemethyl)-4-quinolin-6-ylmethyl-4H-1,4-benzoxazin-3-one], the IC50 was 0.006 µM.

Turning to `COc1ccc(CCCN2C(=O)COc3ccc(C=C4SC(=S)NC4=O)cc32)cc1` [Example 122, 4-[3-(4-Methoxy-phenyl)-propyl]-6-(4-oxo-2-thioxo-thiazolidin-5-ylidenemethyl)-4H-benzo[1,4]oxazin-3-one], the IC50 was 0.005 µM.

`CC(C)(O)c1cc(CN2C(=O)COc3ccc(C=C4SC(=S)NC4=O)cc32)ccc1Cl` [Example 332, 4-[4-Chloro-3-(1-hydroxy-1-methyl-ethyl)-benzyl]-6-(4-oxo-2-thioxo-thiazolidin-5-ylidenemethyl)-4H-1,4-benzoxazin-3-one; compound with ethane-1,2-diamine]: the IC50 was 0.007 µM.

For the compound `C[C@@H]1Oc2ccc(C=C3SC(=S)NC3=O)cc2N(Cc2ccccc2)C1=O` [Example 18, (S)-4-Benzyl-2-methyl-6-(4-oxo-2-thioxo-thiazolidin-5-ylidenemethyl)-4H-1,4-benzoxazin-3-one], the IC50 was found to be 0.319 µM.

As for `CC(C)(C)c1cc(CN2C(=O)COc3c(F)cc(C=C4SC(=S)NC4=O)cc32)cc(C(C)(C)C)c1` [Example 54, 4-(3,5-Di-tert-butyl-benzyl)-8-fluoro-6-(4-oxo-2-thioxo-thiazolidin-5-ylidenemethyl)-4H-1,4-benzoxazin-3-one], the IC50 was 0.04 µM.

Turning to `CCOC(=O)N1CCN(Cc2ccc(CN3C(=O)COc4ccc(C=C5SC(=S)NC5=O)cc43)cc2)CC1` [Example 241, 4-{4-[3-Oxo-6-(4-oxo-2-thioxo-thiazolidin-5-ylidenemethyl)-2,3-dihydro-benzo[1,4]oxazin-4-ylmethyl]-benzyl}-piperazine-1-carboxylic acid ethyl ester], the IC50 was determined as 0.052 µM.

Consider `O=C1NC(=O)C(=Cc2ccc3c(c2)N(Cc2cc(Cl)nc(Cl)c2)C(=O)CO3)S1` [Example 226, 5-[4-(2,6-Dichloro-pyridin-4-ylmethyl)-3-oxo-3,4-dihydro-2H-1,4-benzoxazin-6-ylmethylene]-thiazolidine-2,4-dione], for which the IC50 is 34.2 µM.

For `O=C1NC(=S)SC1=Cc1ccc2c(c1)N(CC(=O)c1ccc3c(c1)oc1ccccc13)C(=O)CO2` [Example 186, 4-(2-Dibenzofuran-3-yl-2-oxo-ethyl)-6-(4-oxo-2-thioxo-thiazolidin-5-ylidenemethyl)-4H-1,4-benzoxazin-3-one], the IC50 stood at 0.315 µM.

Take `O=C1NC(=S)SC1=Cc1ccc2c(c1)N(Cc1cc(OS(=O)(=O)C(F)(F)F)cc(OS(=O)(=O)C(F)(F)F)c1)C(=O)CO2` [Example 44, Trifluoro-methanesulfonic acid 3-[3-oxo-6-(4-oxo-2-thioxo-thiazolidin-5-ylidenemethyl)-2,3-dihydro-1,4-benzoxazin-4-ylmethyl]-5-trifluoromethanesulfonyloxy-phenyl ester]: the half-inhibitory concentration (IC50) is 0.265 µM.

For `CC(C)(C)c1cc(CO)cc(CN2C(=O)COc3c(F)cc(/C=C4\SC(=S)NC4=O)cc32)c1` [Example 284, 4-(3-tert-Butyl-5-hydroxymethyl-benzyl)-8-fluoro-6-[4-oxo-2-thioxo-thiazolidin-(5Z)-ylidenemethyl]-4H-benzo[1,4]oxazin-3-one], the IC50 came out at 0.01 µM.

As to `COc1ccc(CN2C(=O)COc3c(F)cc(C=C4SC(=S)NC4=O)cc32)cc1C(F)(F)F` [Example 299, 8-Fluoro-4-(4-methoxy-3-trifluoromethyl-benzyl)-6-(4-oxo-2-thioxo-thiazolidin-5-ylidenemethyl)-4H-benzo[1,4]oxazin-3-one], the half-inhibitory concentration (IC50) came out at 0.006 µM.

For the compound `CN(C)S(=O)(=O)c1cccc(CN2C(=O)COc3ccc(C=C4SC(=S)NC4=O)cc32)c1` [Example 262, N,N-Dimethyl-3-[3-oxo-6-(4-oxo-2-thioxo-thiazolidin-5-ylidenemethyl)-2,3-dihydro-1,4-benzoxazin-4-ylmethyl]-benzenesulfonamide], the IC50 was found to be 0.019 µM.

With `CC(C)(C)OC(=O)CNC(=O)c1cc(CN2C(=O)COc3ccc(C=C4SC(=S)NC4=O)cc32)cc(C(C)(C)C)c1` [Example 59, {3-tert-Butyl-5-[3-oxo-6-(4-oxo-2-thioxo-thiazolidin-5-ylidenemethyl)-2,3-dihydro-1,4-benzoxazin-4-ylmethyl]-benzoylamino}-acetic acid tert-butyl ester], the IC50 was 0.07 µM.

Take `CN1CCN(Cc2cc(CN3C(=O)COc4ccc(C=C5SC(=S)NC5=O)cc43)cc(C(C)(C)C)c2)CC1` [Example 222, 4-[3-tert-Butyl-5-(4-methyl-piperazin-1-ylmethyl)-benzyl]-6-(4-oxo-2-thioxo-thiazolidin-5-ylidenemethyl)-4H-1,4-benzoxazin-3-one]: the IC50 was found to be 0.006 µM.

Take `O=C1NC(=S)SC1=Cc1ccc2c(c1)N(Cc1ccc(S(=O)(=O)N3CCOCC3)cc1)C(=O)CO2` [Example 259, 4-[4-(Morpholine-4-sulfonyl)-benzyl]-6-(4-oxo-2-thioxo-thiazolidin-5-ylidenemethyl)-4H-1,4-benzoxazin-3-one]: the IC50 came to 0.013 µM.

One may read the IC50 as the concentration that gives 50% inhibition.
